What all share (test): MIC, CLSI broth microdilution, Test Example 2
Type in all cases: cell-based

One assay deals with A. baumannii SR01331. The note with it: Acinetobacter baumannii, SR01331; PER-1, OXA-23.51 ESBL- & OXA-type carbapenemase producing strain; cation-adjusted Iso-Sensitest broth containing human Apo-transferrin; 5×10^5 cfu/mL; read-out: Minimum Inhibitory Concentration (MIC) A. baumannii SR01331. The procedure:
(§1) Measurement of Minimum Inhibitory Concentration (MIC: μg/mL) was conducted according to CLSI (Clinical and Laboratory Standards Institute) method, and the amount of bacteria for inoculation was 5×10^5 cfu/mL, and cation-adjusted Iso-Sensitest broth containing human Apo-transferrin was used as a test medium, and the experiment was conducted using broth microdilution method.

In another assay the test system is E. cloacae NCTC13464. Conditions: Enterobacter cloacae, NCTC13464; CTX-M group 9 ESBL producing strain; cation-adjusted Iso-Sensitest broth containing human Apo-transferrin; 5×10^5 cfu/mL; read-out: Minimum Inhibitory Concentration (MIC) E. cloacae NCTC 13464. The procedure:
as §1

For another assay, the system named is E. coli ATCCBAA-196. The note with it: Escherichia coli, ATCCBAA196; TEM-10 ESBL producing strain; cation-adjusted Iso-Sensitest broth containing human Apo-transferrin; 5×10^5 cfu/mL; read-out: Minimum Inhibitory Concentration (MIC) E. coli ATCC BAA-196. Here is the method: as §1
The test system of the next assay is E. coli ATCCBAA-200. Conditions: Escherichia coli, ATCCBAA200; SHV-4 ESBL producing strain; cation-adjusted Iso-Sensitest broth containing human Apo-transferrin; 5×10^5 cfu/mL; read-out: Minimum Inhibitory Concentration (MIC) E. coli ATCC BAA-200. Here is the method:
as §1

The next assay concerns E. coli SR01337. The note with it: Escherichia coli, SR01337; TEM-1 ESBL producing strain; cation-adjusted Iso-Sensitest broth containing human Apo-transferrin; 5×10^5 cfu/mL; read-out: Minimum Inhibitory Concentration (MIC) E. coli SR01337. Here is the method: as §1
Another assay concerns K. pneumoniae ATCC700603. The note with it: Klebsiella pneumoniae, ATCC700603; SHV18 ESBL producing strain; cation-adjusted Iso-Sensitest broth containing human Apo-transferrin; 5×10^5 cfu/mL; read-out: Minimum Inhibitory Concentration (MIC) K. pneumoniae ATCC 700603. Here is the method:
as §1

In a further assay the test system is P. aeruginosa SR01332. Conditions: Pseudomonas aeruginosa, SR01332; VIM-11 MBL producing strain (carbapenem resistance strain); cation-adjusted Iso-Sensitest broth containing human Apo-transferrin; 5×10^5 cfu/mL; read-out: Minimum Inhibitory Concentration (MIC) P. aeruginosa SR01332. Here is the method:
as §1

Another assay concerns P. aeruginosa SR01335. The note with it: Pseudomonas aeruginosa, SR01335; VIM-1 like MBL producing strain (carbapenem resistance strain); cation-adjusted Iso-Sensitest broth containing human Apo-transferrin; 5×10^5 cfu/mL; read-out: Minimum Inhibitory Concentration (MIC) P. aeruginosa SR01335. The procedure:
as §1

Consider eight compounds from patent US9334289B2, “Cephem compound having catechol or pseudo-catechol structure” (SHIONOGI & CO., LTD., priority 2011, dated 2016).

The structures appear in SMILES notation. Converted amounts (≈) assume the structure as drawn.

`CC(C)(O/N=C(\C(=O)N[C@@H]1C(=O)N2C(c3nnn[n-]3)=C(C[N+]3(CCNC(=O)c4ccc(O)c(O)c4Cl)CCCCC3)CS[C@H]12)c1csc(N)n1)C(=O)[O-].[Na+]` [Compound I-69]: the MIC in the assay with A. baumannii SR01331 is 0.5 µg/mL; in the assay with E. cloacae NCTC13464, 0.063 µg/mL; in the assay with E. coli ATCCBAA-196 it was 0.125 µg/mL; in the assay on E. coli ATCCBAA-200 it was 0.125 µg/mL; in the assay on E. coli SR01337, at most 0.031 µg/mL; with K. pneumoniae ATCC700603, 0.125 µg/mL. For the same compound, the MIC in the assay with P. aeruginosa SR01332 and with P. aeruginosa SR01335 was 2 µg/mL throughout.

As for `CC(C)(O/N=C(\C(=O)N[C@@H]1C(=O)N2C(c3nnn[n-]3)=C(C[N+]3(CCNC(=O)c4cc(O)c(O)c(Cl)c4)CCCC3)CS[C@H]12)c1nc(N)sc1Cl)C(=O)[O-].[Na+]` [Compound I-30], the MIC in the assay on A. baumannii SR01331 is 1 µg/mL; with E. cloacae NCTC13464 it was 0.063 µg/mL; with E. coli ATCCBAA-196, at most 0.031 µg/mL; in the assay with E. coli ATCCBAA-200, 0.063 µg/mL; in the assay on E. coli SR01337, at most 0.031 µg/mL; in the assay on K. pneumoniae ATCC700603 it was 0.125 µg/mL. Moreover, the MIC in the assay on P. aeruginosa SR01332 and in the assay with P. aeruginosa SR01335 was 2 µg/mL throughout.

Regarding `CC(C)(O/N=C(\C(=O)N[C@@H]1C(=O)N2C(c3nnn[n-]3)=C(C[n+]3ccc(NC(=O)c4ccc(O)c(O)c4Cl)cc3)CS[C@H]12)c1nsc(N)n1)C(=O)[O-].[Na+]` [Compound I-116], the MIC with A. baumannii SR01331 was 0.25 µg/mL; in the assay on E. cloacae NCTC13464 it was at most 0.031 µg/mL; in the assay on E. coli ATCCBAA-196, 0.5 µg/mL; in the assay on E. coli ATCCBAA-200 it was 1 µg/mL; in the assay on E. coli SR01337, at most 0.031 µg/mL; in the assay with K. pneumoniae ATCC700603, 0.25 µg/mL. Moreover, the figures for the MIC in the assay with P. aeruginosa SR01332 and in the assay on P. aeruginosa SR01335 were 2 µg/mL and 1 µg/mL, respectively.

As for `Nc1nc(/C(=N/O[C@@H](CC(=O)O)C(=O)[O-])C(=O)N[C@@H]2C(=O)N3C(c4nnn[nH]4)=C(C[N+]4(CCNC(=O)c5cc(O)c(O)c(F)c5)CCCC4)CS[C@H]23)cs1` [Compound I-99], the MIC with A. baumannii SR01331 was 0.5 µg/mL (≈ 0.633 µM); in the assay on E. cloacae NCTC13464, 0.125 µg/mL (≈ 0.158 µM); in the assay with E. coli ATCCBAA-196, at most 0.031 µg/mL; with E. coli ATCCBAA-200, 0.063 µg/mL (≈ 0.0798 µM); in the assay on E. coli SR01337, at most 0.031 µg/mL; in the assay on K. pneumoniae ATCC700603, 0.063 µg/mL (≈ 0.0798 µM). In addition, the MIC in the assay with P. aeruginosa SR01332 was 4 µg/mL (≈ 5.06 µM); in the assay with P. aeruginosa SR01335, 2 µg/mL (≈ 2.53 µM).

Turning to `CC(C)(O/N=C(\C(=O)N[C@@H]1C(=O)N2C(c3nnn[nH]3)=C(C[N+]3(CCNC(=O)c4cc(O)c(O)c(Cl)c4)CCCC3)CS[C@H]12)c1nsc(N)n1)C(=O)[O-]` [Compound I-119], the MIC in the assay with A. baumannii SR01331 is 0.5 µg/mL (≈ 0.643 µM); with E. cloacae NCTC13464, 0.125 µg/mL (≈ 0.161 µM); in the assay on E. coli ATCCBAA-196, 0.5 µg/mL (≈ 0.643 µM); in the assay with E. coli ATCCBAA-200, 0.5 µg/mL (≈ 0.643 µM); in the assay on E. coli SR01337, at most 0.031 µg/mL; in the assay on K. pneumoniae ATCC700603, 0.25 µg/mL (≈ 0.322 µM). Besides, the MIC in the assay with P. aeruginosa SR01332 stood at 4 µg/mL (≈ 5.15 µM); in the assay on P. aeruginosa SR01335, 2 µg/mL (≈ 2.57 µM).

Consider `CC(C)(O/N=C(\C(=O)N[C@@H]1C(=O)N2C(c3nnn[nH]3)=C(C[N+]3(C)CCN(C(=O)c4ccc(O)c(O)c4Cl)CC3)CS[C@H]12)c1nsc(N)n1)C(=O)O.[Na+]` [Compound I-110], for which the MIC in the assay with A. baumannii SR01331 was 1 µg/mL; in the assay with E. cloacae NCTC13464 it was 0.25 µg/mL; in the assay with E. coli ATCCBAA-196 it was 0.5 µg/mL; with E. coli SR01337, 0.063 µg/mL; with K. pneumoniae ATCC700603, 0.25 µg/mL; in the assay on P. aeruginosa SR01332 it was 8 µg/mL. In the assay with P. aeruginosa SR01335, the MIC came to 0.5 µg/mL.

For `CC(C)(O/N=C(\C(=O)N[C@@H]1C(=O)N2C(c3nnn[nH]3)=C(C[N@+]34CCC[C@H]3CN(C(=O)c3ccc(O)c(O)c3Cl)CC4)CS[C@H]12)c1nsc(N)n1)C(=O)[O-]` [Compound I-112], the MIC stood at 1 µg/mL (≈ 1.27 µM) in the assay with A. baumannii SR01331; 0.25 µg/mL (≈ 0.317 µM) in the assay with E. cloacae NCTC13464; 0.5 µg/mL (≈ 0.634 µM) with E. coli ATCCBAA-196; 0.063 µg/mL (≈ 0.0798 µM) in the assay on E. coli SR01337; 0.5 µg/mL (≈ 0.634 µM) in the assay on K. pneumoniae ATCC700603; 4 µg/mL (≈ 5.07 µM) in the assay with P. aeruginosa SR01332. For the same compound, the MIC with P. aeruginosa SR01335 worked out at 2 µg/mL (≈ 2.53 µM).

With `CC(C)(O/N=C(\C(=O)N[C@@H]1C(=O)N2C(c3nnn[nH]3)=C(C[N@+]34CCC[C@H]3CN(C(=O)c3cc(O)c(O)c(F)c3)CC4)CS[C@H]12)c1nsc(N)n1)C(=O)[O-]` [Compound I-111], the MIC turned out to be 1 µg/mL (≈ 1.29 µM) with A. baumannii SR01331; 0.25 µg/mL (≈ 0.323 µM) with E. cloacae NCTC13464; 1 µg/mL (≈ 1.29 µM) with E. coli ATCCBAA-196; 0.125 µg/mL (≈ 0.162 µM) with E. coli SR01337; 0.5 µg/mL (≈ 0.647 µM) with K. pneumoniae ATCC700603; 2 µg/mL (≈ 2.59 µM) with P. aeruginosa SR01332. Also, in the assay with P. aeruginosa SR01335, the MIC stood at 2 µg/mL (≈ 2.59 µM).
